# From the supplement of paper PMC10307832
# Assays:
# Assay in all cases: relative viability (nuclei count vs DMSO), 5 days (fraction); higher = more cells survive
# 201T = tested on: 201T
# Outline: (§1)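 The day after seeding in 1536-well plates, lung cancer cell lines were treated by pin tool with a single drug, or with a fixed anchor-drug dose together with five library-drug doses (not always all listed) in √10 steps. After 5 days, a combined fix-and-stain solution (final 0.05% Triton X-100, 1% formaldehyde, 1 ug/ml Hoechst) was added. Nuclei counted on 4× images gave relative viability as treated counts over vehicle counts, reported as the median of duplicate plates.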
# BEN = tested on: BEN
# Outline: as §1
# EMC-BAC-2 = tested on: EMC-BAC-2
# Outline: as §1
# HARA = tested on: HARA
# Outline: as §1
# HCC-44 = tested on: HCC-44
# Outline: as §1
# LCLC-103H = tested on: LCLC-103H
# Outline: as §1
# LOU-NH91 = tested on: LOU-NH91
# Outline: as §1
# NCI-H1395 = tested on: NCI-H1395
# Outline: as §1
# NCI-H1666 = tested on: NCI-H1666
# Outline: as §1
# NCI-H1993 = tested on: NCI-H1993
# Outline: as §1
# NCI-H2009 = tested on: NCI-H2009
# Outline: as §1
# NCI-H2023 = tested on: NCI-H2023
# Outline: as §1
# NCI-H2087 = tested on: NCI-H2087
# Outline: as §1
# NCI-H2126 = tested on: NCI-H2126
# Outline: as §1
# NCI-H2347 = tested on: NCI-H2347
# Outline: as §1
# NCI-H23 = tested on: NCI-H23
# Outline: as §1
# NCI-H3122 = tested on: NCI-H3122
# Outline: as §1
# NCI-H441 = tested on: NCI-H441
# Outline: as §1
# NCI-H522 = tested on: NCI-H522
# Outline: as §1
# NCI-H596 = tested on: NCI-H596
# Outline: as §1
# NCI-H647 = tested on: NCI-H647
# Outline: as §1
# NCI-H650 = tested on: NCI-H650
# Outline: as §1
# NCI-H727 = tested on: NCI-H727
# Outline: as §1
# NCI-H838 = tested on: NCI-H838
# Outline: as §1
compound,measurement,setting,value
C[C@@H]1CN(CC(=O)Nc2ccc3c(c2)Cc2cccc(-c4cc(=O)cc(N5CCOCC5)o4)c2S3)C[C@H](C)O1 + Cc1cc(Nc2cc(N3CCN(C)CC3)nc(Sc3ccc(NC(=O)C4CC4)cc3)n2)n[nH]1 [Tozasertib] (partner 0.1 µM),relative viability,201T; first compound 0.04 µM,0.93
same,relative viability,201T; first compound 0.1265 µM,0.882
same,relative viability,201T; first compound 0.4 µM,0.909
same,relative viability,201T; first compound 4 µM,0.922
same,relative viability,BEN; first compound 0.04 µM,0.449
same,relative viability,BEN; first compound 0.1265 µM,0.49
same,relative viability,BEN; first compound 0.4 µM,0.447
same,relative viability,BEN; first compound 4 µM,0.478
same,relative viability,EMC-BAC-2; first compound 0.04 µM,0.257
same,relative viability,EMC-BAC-2; first compound 0.1265 µM,0.29
same,relative viability,EMC-BAC-2; first compound 0.4 µM,0.294
same,relative viability,EMC-BAC-2; first compound 4 µM,0.264
same,relative viability,HARA; first compound 0.1265 µM,0.105
same,relative viability,HARA; first compound 0.4 µM,0.0954
same,relative viability,HARA; first compound 4 µM,0.104
same,relative viability,HCC-44; first compound 0.04 µM,0.862
same,relative viability,HCC-44; first compound 0.1265 µM,0.933
same,relative viability,HCC-44; first compound 0.4 µM,1.05
same,relative viability,HCC-44; first compound 4 µM,0.652
same,relative viability,LCLC-103H; first compound 0.04 µM,0.532
same,relative viability,LCLC-103H; first compound 0.1265 µM,0.498
same,relative viability,LCLC-103H; first compound 0.4 µM,0.544
same,relative viability,LCLC-103H; first compound 4 µM,0.417
same,relative viability,LOU-NH91; first compound 0.04 µM,0.605
same,relative viability,LOU-NH91; first compound 0.1265 µM,0.649
same,relative viability,LOU-NH91; first compound 0.4 µM,0.69
same,relative viability,LOU-NH91; first compound 4 µM,0.62
same,relative viability,NCI-H1395; first compound 0.04 µM,0.696
same,relative viability,NCI-H1395; first compound 0.1265 µM,0.729
same,relative viability,NCI-H1395; first compound 0.4 µM,0.665
same,relative viability,NCI-H1395; first compound 4 µM,0.721
same,relative viability,NCI-H1666; first compound 0.04 µM,0.637
same,relative viability,NCI-H1666; first compound 0.1265 µM,0.689
same,relative viability,NCI-H1666; first compound 0.4 µM,0.622
same,relative viability,NCI-H1666; first compound 4 µM,0.43
same,relative viability,NCI-H1993; first compound 0.04 µM,0.567
same,relative viability,NCI-H1993; first compound 0.1265 µM,0.592
same,relative viability,NCI-H1993; first compound 0.4 µM,0.52
same,relative viability,NCI-H1993; first compound 4 µM,0.569
same,relative viability,NCI-H2009; first compound 0.04 µM,0.856
same,relative viability,NCI-H2009; first compound 0.1265 µM,0.682
same,relative viability,NCI-H2009; first compound 0.4 µM,0.593
same,relative viability,NCI-H2009; first compound 4 µM,0.503
same,relative viability,NCI-H2023; first compound 0.04 µM,0.406
same,relative viability,NCI-H2023; first compound 0.1265 µM,0.285
same,relative viability,NCI-H2023; first compound 0.4 µM,0.238
same,relative viability,NCI-H2023; first compound 4 µM,0.175
same,relative viability,NCI-H2087; first compound 0.04 µM,0.309
same,relative viability,NCI-H2087; first compound 0.1265 µM,0.249
same,relative viability,NCI-H2087; first compound 0.4 µM,0.333
same,relative viability,NCI-H2087; first compound 4 µM,0.228
same,relative viability,NCI-H2126; first compound 0.04 µM,0.898
same,relative viability,NCI-H2126; first compound 0.1265 µM,0.83
same,relative viability,NCI-H2126; first compound 0.4 µM,0.793
same,relative viability,NCI-H2126; first compound 4 µM,0.699
same,relative viability,NCI-H2347; first compound 0.04 µM,0.598
same,relative viability,NCI-H2347; first compound 0.1265 µM,0.646
same,relative viability,NCI-H2347; first compound 0.4 µM,0.535
same,relative viability,NCI-H2347; first compound 4 µM,0.448
same,relative viability,NCI-H23; first compound 0.04 µM,0.362
same,relative viability,NCI-H23; first compound 0.1265 µM,0.308
same,relative viability,NCI-H23; first compound 0.4 µM,0.348
same,relative viability,NCI-H23; first compound 4 µM,0.198
same,relative viability,NCI-H3122; first compound 0.04 µM,0.4
same,relative viability,NCI-H3122; first compound 0.1265 µM,0.403
same,relative viability,NCI-H3122; first compound 0.4 µM,0.265
same,relative viability,NCI-H3122; first compound 4 µM,0.293
same,relative viability,NCI-H441; first compound 0.04 µM,0.601
same,relative viability,NCI-H441; first compound 0.1265 µM,0.678
same,relative viability,NCI-H441; first compound 0.4 µM,0.528
same,relative viability,NCI-H441; first compound 4 µM,0.49
same,relative viability,NCI-H522; first compound 0.04 µM,0.542
same,relative viability,NCI-H522; first compound 0.1265 µM,0.56
same,relative viability,NCI-H522; first compound 0.4 µM,0.583
same,relative viability,NCI-H522; first compound 4 µM,0.557
same,relative viability,NCI-H596; first compound 0.04 µM,0.934
same,relative viability,NCI-H596; first compound 0.1265 µM,1.13
same,relative viability,NCI-H596; first compound 0.4 µM,0.759
same,relative viability,NCI-H596; first compound 4 µM,0.762
same,relative viability,NCI-H647; first compound 0.04 µM,0.461
same,relative viability,NCI-H647; first compound 0.1265 µM,0.278
same,relative viability,NCI-H647; first compound 0.4 µM,0.344
same,relative viability,NCI-H647; first compound 4 µM,0.192
same,relative viability,NCI-H650; first compound 0.04 µM,0.655
same,relative viability,NCI-H650; first compound 0.1265 µM,0.811
same,relative viability,NCI-H650; first compound 0.4 µM,0.698
same,relative viability,NCI-H650; first compound 4 µM,0.581
same,relative viability,NCI-H727; first compound 0.04 µM,0.797
same,relative viability,NCI-H727; first compound 0.1265 µM,0.736
same,relative viability,NCI-H727; first compound 0.4 µM,0.572
same,relative viability,NCI-H727; first compound 4 µM,0.57
same,relative viability,NCI-H838; first compound 0.04 µM,0.255
same,relative viability,NCI-H838; first compound 0.1265 µM,0.279
same,relative viability,NCI-H838; first compound 0.4 µM,0.28
same,relative viability,NCI-H838; first compound 4 µM,0.202
